Assay type in all cases: biochemical
One experiment deals with T1, Itk (Homo sapiens, UniProt Q08881).
T1 construct: Kinases are expressed as either kinase domains or full length constructs; made in house
T1 sequence (Q08881 1-620): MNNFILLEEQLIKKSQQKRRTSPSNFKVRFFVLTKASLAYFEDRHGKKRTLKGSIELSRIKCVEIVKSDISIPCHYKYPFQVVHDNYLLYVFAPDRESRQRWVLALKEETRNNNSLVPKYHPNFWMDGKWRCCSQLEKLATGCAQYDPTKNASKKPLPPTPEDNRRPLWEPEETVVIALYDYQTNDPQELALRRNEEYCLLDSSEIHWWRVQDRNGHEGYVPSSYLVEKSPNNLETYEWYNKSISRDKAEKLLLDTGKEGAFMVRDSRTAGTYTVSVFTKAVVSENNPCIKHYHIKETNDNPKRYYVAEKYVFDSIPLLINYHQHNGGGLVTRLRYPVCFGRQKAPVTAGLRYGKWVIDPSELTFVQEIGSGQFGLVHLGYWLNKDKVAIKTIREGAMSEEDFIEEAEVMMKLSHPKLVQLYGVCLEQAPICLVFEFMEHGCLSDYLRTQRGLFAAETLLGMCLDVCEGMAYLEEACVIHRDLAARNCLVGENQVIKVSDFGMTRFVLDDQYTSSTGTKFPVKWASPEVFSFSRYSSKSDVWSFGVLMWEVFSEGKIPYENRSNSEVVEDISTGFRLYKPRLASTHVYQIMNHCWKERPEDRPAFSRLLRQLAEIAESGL
Nature of the experiment: Kinase inhibition assay (33P transfer), Itk. To be noted: read-out: Itk-1. An outline of the steps: (§1)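 Recombinant kinase domains or full-length GST- or His-tagged constructs, from E. coli or baculovirus/High Five cells, sometimes with regulatory polypeptides. Transfer of 33P from ATP to plate-bound poly(Glu,Tyr) 4:1 or poly(Arg,Ser) 3:1 counted by liquid scintillation after phosphoric acid wash; IC50 is the concentration halving incorporation.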

In the next experiment the target is T2, Lck (Homo sapiens, UniProt P06239).
T2 construct: Kinases are expressed as either kinase domains or full length constructs; made in house
Nature of the experiment: Kinase inhibition assay (33P transfer), Lck. Particulars: read-out: Lck-1. An outline of the steps:
(§2)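 Kinase domain or full-length constructs, GST- or polyHis-tagged, expressed in E. coli or baculovirus-High Five cells, sometimes with regulatory polypeptides. Activity measured as 33PO4 transfer from ATP to plate-bound poly(Glu,Tyr) 4:1 or poly(Arg,Ser) 3:1; after incubation, plates washed with 0.5% phosphoric acid and counted by liquid scintillation.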

The target of a further experiment is T3, c-Met (Homo sapiens, UniProt P08581).
T3 construct: Kinases are expressed as either kinase domains or full length constructs; made in house
T3 sequence (P08581 25-1390): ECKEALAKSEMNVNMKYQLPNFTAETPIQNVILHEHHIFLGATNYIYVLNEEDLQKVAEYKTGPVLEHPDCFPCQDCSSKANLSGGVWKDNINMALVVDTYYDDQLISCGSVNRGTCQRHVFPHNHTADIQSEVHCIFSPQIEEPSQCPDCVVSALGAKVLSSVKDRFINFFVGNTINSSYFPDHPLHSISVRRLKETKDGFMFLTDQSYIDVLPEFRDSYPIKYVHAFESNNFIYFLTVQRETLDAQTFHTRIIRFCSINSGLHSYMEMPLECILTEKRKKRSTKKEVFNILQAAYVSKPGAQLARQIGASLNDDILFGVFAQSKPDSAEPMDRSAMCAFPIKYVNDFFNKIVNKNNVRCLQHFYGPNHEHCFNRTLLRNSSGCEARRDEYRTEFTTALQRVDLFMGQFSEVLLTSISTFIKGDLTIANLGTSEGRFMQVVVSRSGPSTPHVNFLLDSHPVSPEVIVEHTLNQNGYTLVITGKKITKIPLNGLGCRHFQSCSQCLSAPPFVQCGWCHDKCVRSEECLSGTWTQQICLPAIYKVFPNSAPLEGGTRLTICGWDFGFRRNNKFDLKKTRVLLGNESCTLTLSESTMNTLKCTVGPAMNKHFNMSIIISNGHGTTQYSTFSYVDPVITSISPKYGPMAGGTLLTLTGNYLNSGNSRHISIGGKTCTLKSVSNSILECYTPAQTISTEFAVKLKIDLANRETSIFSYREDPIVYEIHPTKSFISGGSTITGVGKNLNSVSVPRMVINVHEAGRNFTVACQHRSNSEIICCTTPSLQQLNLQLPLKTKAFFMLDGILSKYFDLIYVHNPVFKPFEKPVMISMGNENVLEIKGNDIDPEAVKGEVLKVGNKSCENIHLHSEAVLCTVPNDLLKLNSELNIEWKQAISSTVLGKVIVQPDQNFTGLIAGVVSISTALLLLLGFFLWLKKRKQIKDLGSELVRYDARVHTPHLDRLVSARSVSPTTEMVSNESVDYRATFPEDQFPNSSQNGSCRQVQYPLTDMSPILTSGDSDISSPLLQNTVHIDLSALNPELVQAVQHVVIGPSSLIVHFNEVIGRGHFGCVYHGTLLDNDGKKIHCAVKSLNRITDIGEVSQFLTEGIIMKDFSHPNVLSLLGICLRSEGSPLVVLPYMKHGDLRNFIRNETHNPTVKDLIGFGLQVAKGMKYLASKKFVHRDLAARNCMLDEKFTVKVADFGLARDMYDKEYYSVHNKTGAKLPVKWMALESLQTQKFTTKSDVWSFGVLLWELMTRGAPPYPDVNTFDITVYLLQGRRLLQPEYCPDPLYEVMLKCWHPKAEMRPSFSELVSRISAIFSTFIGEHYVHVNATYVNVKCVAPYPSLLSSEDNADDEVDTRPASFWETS
Nature of the experiment: Kinase inhibition assay (33P transfer), c-Met. To be noted: Table 2, kinase inhibition class; read-out: Met-1. The method in brief: as §1

In a further experiment the target is T4, ErbB2 (Homo sapiens, UniProt P04626).
T4 construct: Kinases are expressed as either kinase domains or full length constructs; made in house
Nature of the experiment: Kinase inhibition assay (33P transfer), ErbB2. Particulars: read-out: ErbB2-2. The method in brief: as §1

The next experiment deals with T5, Kdr (Homo sapiens, UniProt P35968).
T5 construct: Kinases are expressed as either kinase domains or full length constructs; made in house
Nature of the experiment: Kinase inhibition assay (33P transfer), Kdr. To be noted: read-out: KDR-1. An outline of the steps: as §2

Another experiment concerns the target T6, IGFR-1 (Homo sapiens, UniProt P08069).
T6 construct: Kinases are expressed as either kinase domains or full length constructs; made in house
Nature of the experiment: Kinase inhibition assay, IGFR-1 (Table 2). To be noted: Table 2, kinase inhibition class.

The target in a further experiment is T7, Zap-70 (Homo sapiens, UniProt P43403).
T7 construct: Kinases are expressed as either kinase domains or full length constructs; made in house
T7 sequence (P43403 1-619): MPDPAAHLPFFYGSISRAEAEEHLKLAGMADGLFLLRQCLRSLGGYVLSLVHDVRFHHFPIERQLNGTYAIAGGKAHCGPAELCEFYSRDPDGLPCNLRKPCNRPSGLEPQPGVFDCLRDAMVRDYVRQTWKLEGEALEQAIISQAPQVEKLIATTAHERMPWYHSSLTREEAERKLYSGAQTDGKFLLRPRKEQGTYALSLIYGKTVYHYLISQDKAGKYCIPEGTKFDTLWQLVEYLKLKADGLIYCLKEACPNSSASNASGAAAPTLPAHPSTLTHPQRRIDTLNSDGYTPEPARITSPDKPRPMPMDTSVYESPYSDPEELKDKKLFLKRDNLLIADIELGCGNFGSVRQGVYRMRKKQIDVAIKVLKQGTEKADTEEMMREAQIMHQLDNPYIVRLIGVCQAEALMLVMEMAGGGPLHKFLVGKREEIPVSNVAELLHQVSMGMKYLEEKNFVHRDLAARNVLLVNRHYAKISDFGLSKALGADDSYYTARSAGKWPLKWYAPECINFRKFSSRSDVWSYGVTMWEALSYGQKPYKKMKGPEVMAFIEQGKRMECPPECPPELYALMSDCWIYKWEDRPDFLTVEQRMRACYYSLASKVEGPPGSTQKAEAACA
Nature of the experiment: Kinase inhibition assay (33P transfer), Zap-70. To be noted: read-out: Zap-1. An outline of the steps: as §2

A further experiment concerns the target T8, EGFR (Homo sapiens, UniProt P00533).
T8 construct: Kinases are expressed as either kinase domains or full length constructs; made in house
Nature of the experiment: Kinase inhibition assay (33P transfer), EGFR. Particulars: Table 2, kinase inhibition class; read-out: EGFR-1. An outline of the steps: as §1

The target of the next experiment is T9, AKT (Homo sapiens, UniProt Q9Y243).
T9 construct: Kinases are expressed as either kinase domains or full length constructs; made in house
Nature of the experiment: Kinase inhibition assay (33P transfer), AKT. Particulars: Table 2, kinase inhibition class; read-out: AKT3-1. An outline of the steps: as §2

A further experiment has as its target T10, PDGFRB (Homo sapiens, UniProt P09619).
T10 construct: Kinases are expressed as either kinase domains or full length constructs; made in house
Nature of the experiment: Kinase inhibition assay (33P transfer), PDGFRB. Particulars: read-out: PDGFRB-1.

Molecules are shown by their SMILES. Bounds are passed on as bounds.

T10 sequence (P09619 33-1106, species assumed): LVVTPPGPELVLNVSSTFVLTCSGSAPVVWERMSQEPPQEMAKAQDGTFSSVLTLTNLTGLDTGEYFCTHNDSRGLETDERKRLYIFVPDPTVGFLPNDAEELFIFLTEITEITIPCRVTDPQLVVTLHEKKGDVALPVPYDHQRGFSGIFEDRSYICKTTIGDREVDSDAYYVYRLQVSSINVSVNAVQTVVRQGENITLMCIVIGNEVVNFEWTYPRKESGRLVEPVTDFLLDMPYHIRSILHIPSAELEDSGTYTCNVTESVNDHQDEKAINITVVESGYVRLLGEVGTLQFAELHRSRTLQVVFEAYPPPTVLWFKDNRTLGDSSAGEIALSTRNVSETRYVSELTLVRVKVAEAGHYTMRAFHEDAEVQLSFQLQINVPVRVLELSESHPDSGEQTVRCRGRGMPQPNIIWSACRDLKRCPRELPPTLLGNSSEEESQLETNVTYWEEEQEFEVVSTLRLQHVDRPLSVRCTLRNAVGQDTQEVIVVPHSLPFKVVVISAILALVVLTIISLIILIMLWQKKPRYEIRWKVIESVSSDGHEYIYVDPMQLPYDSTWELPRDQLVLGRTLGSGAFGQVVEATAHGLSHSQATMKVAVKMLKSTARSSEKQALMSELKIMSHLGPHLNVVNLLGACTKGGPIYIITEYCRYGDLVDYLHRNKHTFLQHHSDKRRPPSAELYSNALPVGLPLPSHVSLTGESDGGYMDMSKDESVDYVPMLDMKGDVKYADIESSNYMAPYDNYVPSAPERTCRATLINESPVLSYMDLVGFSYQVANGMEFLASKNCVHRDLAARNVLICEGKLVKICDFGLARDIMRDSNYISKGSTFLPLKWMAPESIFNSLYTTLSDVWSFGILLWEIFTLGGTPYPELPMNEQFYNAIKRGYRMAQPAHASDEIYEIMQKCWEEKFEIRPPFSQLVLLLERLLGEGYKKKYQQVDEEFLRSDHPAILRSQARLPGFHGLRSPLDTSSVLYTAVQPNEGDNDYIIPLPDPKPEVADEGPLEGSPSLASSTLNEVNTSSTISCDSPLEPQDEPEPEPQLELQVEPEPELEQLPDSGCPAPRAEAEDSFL
T8 sequence (P00533 25-1210, species assumed): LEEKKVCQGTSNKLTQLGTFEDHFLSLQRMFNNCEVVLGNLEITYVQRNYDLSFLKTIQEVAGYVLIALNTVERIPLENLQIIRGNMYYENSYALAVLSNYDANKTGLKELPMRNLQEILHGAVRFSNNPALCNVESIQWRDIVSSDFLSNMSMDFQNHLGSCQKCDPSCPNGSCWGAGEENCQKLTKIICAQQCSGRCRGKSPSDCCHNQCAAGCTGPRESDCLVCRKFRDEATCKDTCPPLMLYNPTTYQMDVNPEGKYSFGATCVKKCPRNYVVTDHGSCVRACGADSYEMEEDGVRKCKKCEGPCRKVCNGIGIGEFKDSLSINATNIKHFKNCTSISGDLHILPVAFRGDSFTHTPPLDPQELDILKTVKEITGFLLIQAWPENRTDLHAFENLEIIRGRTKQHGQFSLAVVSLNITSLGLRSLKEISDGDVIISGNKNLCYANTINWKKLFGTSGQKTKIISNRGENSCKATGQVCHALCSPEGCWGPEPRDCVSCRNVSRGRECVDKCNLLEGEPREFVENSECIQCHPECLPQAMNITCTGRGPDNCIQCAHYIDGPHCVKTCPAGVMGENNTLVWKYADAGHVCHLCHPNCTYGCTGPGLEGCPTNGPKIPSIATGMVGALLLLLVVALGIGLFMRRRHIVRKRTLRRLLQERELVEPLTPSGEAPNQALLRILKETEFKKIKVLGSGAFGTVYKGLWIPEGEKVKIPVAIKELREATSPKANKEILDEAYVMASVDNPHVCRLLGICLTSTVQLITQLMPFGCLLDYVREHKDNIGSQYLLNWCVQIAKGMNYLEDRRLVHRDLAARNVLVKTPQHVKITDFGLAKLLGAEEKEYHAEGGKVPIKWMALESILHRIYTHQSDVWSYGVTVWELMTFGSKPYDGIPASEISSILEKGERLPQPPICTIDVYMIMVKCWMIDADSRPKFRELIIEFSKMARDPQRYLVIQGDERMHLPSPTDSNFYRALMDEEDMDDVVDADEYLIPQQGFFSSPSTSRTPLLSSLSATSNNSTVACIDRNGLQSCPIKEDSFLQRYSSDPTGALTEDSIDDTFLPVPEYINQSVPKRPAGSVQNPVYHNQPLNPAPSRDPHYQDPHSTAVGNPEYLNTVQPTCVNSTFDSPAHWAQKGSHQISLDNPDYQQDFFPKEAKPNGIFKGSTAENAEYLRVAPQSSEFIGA
T6 sequence (P08069 31-1367): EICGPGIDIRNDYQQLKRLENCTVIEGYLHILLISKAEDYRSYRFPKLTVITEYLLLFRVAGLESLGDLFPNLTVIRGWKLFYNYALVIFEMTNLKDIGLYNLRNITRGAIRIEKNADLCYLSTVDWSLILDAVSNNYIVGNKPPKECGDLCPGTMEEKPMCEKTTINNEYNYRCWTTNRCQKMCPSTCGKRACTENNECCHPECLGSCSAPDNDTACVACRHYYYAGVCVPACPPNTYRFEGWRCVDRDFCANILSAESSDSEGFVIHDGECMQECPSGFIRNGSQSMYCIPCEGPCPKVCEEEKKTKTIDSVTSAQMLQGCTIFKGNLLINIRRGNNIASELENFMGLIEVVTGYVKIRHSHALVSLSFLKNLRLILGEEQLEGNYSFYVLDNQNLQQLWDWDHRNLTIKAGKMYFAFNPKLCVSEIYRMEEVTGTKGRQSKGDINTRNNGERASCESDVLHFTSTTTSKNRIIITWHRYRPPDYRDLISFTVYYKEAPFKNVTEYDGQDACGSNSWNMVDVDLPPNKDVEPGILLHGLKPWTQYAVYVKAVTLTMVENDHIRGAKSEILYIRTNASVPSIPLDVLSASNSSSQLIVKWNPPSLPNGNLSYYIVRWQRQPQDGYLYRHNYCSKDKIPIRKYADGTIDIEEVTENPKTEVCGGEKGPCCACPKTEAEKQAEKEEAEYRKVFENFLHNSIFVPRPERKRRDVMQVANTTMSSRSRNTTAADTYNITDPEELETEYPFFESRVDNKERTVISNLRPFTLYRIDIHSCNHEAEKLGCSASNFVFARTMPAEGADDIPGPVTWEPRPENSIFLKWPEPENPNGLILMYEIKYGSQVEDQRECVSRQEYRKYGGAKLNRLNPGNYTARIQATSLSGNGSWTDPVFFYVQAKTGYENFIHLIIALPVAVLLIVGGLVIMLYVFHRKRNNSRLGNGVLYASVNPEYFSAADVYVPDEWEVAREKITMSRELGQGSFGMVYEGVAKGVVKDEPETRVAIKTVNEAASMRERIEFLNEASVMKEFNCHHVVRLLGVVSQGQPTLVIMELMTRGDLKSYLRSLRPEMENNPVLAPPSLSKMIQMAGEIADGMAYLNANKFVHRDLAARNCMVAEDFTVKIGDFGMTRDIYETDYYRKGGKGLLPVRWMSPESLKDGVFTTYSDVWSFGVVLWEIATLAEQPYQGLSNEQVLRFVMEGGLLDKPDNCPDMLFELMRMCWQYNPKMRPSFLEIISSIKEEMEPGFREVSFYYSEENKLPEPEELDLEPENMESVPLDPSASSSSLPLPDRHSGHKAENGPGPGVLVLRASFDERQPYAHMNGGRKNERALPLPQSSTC

In the case of `CC(=O)c1ccc(Nc2ncnc(Nc3ccc4c(cnn4Cc4ccccc4)c3)n2)cc1` [Compound 730], the IC50 is 0.919 to 5.51 µM at Itk; 5.51 to 8.04 µM on Lck; 0.919 to 5.51 µM at c-Met; 0.919 to 5.51 µM at ErbB2; 0.919 to 5.51 µM at Kdr; 0.919 to 5.51 µM against IGFR-1. The IC50 was 0.919 to 5.51 µM on Zap-70, under 0.919 µM at EGFR, 5.51 to 8.04 µM on AKT and 0.919 to 5.51 µM on PDGFRB.

As for `CN(c1cccc(Cl)c1)c1ncnc(N(C)c2cccc(Cl)c2)n1` [Compound 702], the IC50 on Itk, on Lck, on c-Met, at ErbB2, at Kdr and at IGFR-1 was over 12.5 µM in each case. Also, the IC50 is over 12.5 µM on Zap-70, 1.11 to 6.66 µM at EGFR, over 12.5 µM at AKT and over 12.5 µM at PDGFRB.

In the case of `COc1ccc(CNc2nc3ccccc3n2-c2ncnc(Nc3cccc(CC(=O)O)c3)n2)cc1` [Compound 534], the IC50 on Itk is over 9.35 µM; at Lck it was 7.27 to 9.35 µM; at c-Met, over 9.35 µM; on ErbB2, over 9.35 µM; on Kdr, under 0.831 µM; against IGFR-1, over 9.35 µM. Further, the IC50 is over 9.35 µM on Zap-70, over 9.35 µM on EGFR, over 9.35 µM on AKT and 0.831 to 4.98 µM on PDGFRB.

As to `CCOc1cccc(Nc2ncnc(Nc3ccc(OC)c(OC)c3)n2)c1` [Compound 783], the IC50 at Itk was over 12.2 µM; on Lck, 1.09 to 6.53 µM; at c-Met it was over 12.2 µM; on ErbB2 it was 6.53 to 9.53 µM; at Kdr, 9.53 to 12.2 µM; against IGFR-1, 1.09 to 6.53 µM. Further, the IC50 on Zap-70 was over 12.2 µM; on EGFR, over 12.2 µM; on AKT it was over 12.2 µM; on PDGFRB, 6.53 to 9.53 µM.

Take `COc1cc(Nc2ncnc(-n3c(NCc4ccc(OC(F)(F)F)cc4)nc4ccccc43)n2)cc(OC)c1OC` [Compound 571]: the IC50 at Itk was over 7.93 µM; at Lck, over 7.93 µM; on c-Met it was 6.17 to 7.93 µM; on ErbB2, 4.23 to 6.17 µM; at Kdr, over 7.93 µM; against IGFR-1, over 7.93 µM. The IC50 on Zap-70, on EGFR, at AKT and at PDGFRB was over 7.93 µM throughout.

`CCc1ccc(Nc2nc3ccccc3n2-c2ncnc(Nc3cc(OC)c(OC)c(OC)c3)n2)cc1` [Compound 1048]: the IC50 on Itk was over 9.04 µM; at Lck it was 0.804 to 4.82 µM; at c-Met, over 9.04 µM; at ErbB2, 0.804 to 4.82 µM; at Kdr, under 0.804 µM; at IGFR-1 it was over 9.04 µM. The IC50 is over 9.04 µM on Zap-70, under 0.804 µM on EGFR, over 9.04 µM at AKT and 7.03 to 9.04 µM on PDGFRB.

As to `c1ccc(Cn2ncc3cc(Nc4ncnc(NCc5ccco5)n4)ccc32)cc1` [Compound 728], the IC50 was over 11.3 µM at Itk; over 11.3 µM at Lck; 1.01 to 6.04 µM on c-Met; over 11.3 µM on ErbB2; 1.01 to 6.04 µM on Kdr; 1.01 to 6.04 µM on IGFR-1. In addition, the IC50 at Zap-70 was 1.01 to 6.04 µM; at EGFR, 1.01 to 6.04 µM; on AKT, over 11.3 µM; at PDGFRB it was over 11.3 µM.

For `COc1ccc(Cl)cc1Nc1ncnc(Nc2cc(OC)c(OC)c(OC)c2)n1` [Compound 627], the IC50 on Itk was 0.957 to 5.74 µM; at Lck, under 0.957 µM; on c-Met, 8.38 to 10.8 µM; on ErbB2, 0.957 to 5.74 µM; at Kdr it was 0.957 to 5.74 µM; against IGFR-1, under 0.957 µM. Also, the IC50 on Zap-70 is over 10.8 µM; at EGFR, 0.957 to 5.74 µM; on AKT, over 10.8 µM; on PDGFRB, under 0.957 µM.
